Data as given in patent US9701645B2 (priority 2005, dated 2017).
Like-named read-outs stand apart in the source and are kept apart here.

Columns and labels:
delta-opioid receptor = target: T1, delta-opioid receptor (Rattus norvegicus, UniProt P33533); test: Radioligand binding, delta receptor ([3H]DPDPE)
T1 construct: delta and mu receptors from rat whole brain homogenate; from tissue; host or cells: rat whole brain homogenate (membrane fractions)
Procedure: (§1) The basic pharmacology of the Formulas (i)-(iv) is described below in terms of receptor binding affinity (delta and mu receptors from rat whole brain homogenate; kappa receptors from guinea pig cerebellar homogenate), intrinsic activity in mouse isolated vas deferens (delta receptor) and guinea pig isolated ileum (mu receptor).
(§2) Membrane fractions were incubated with test compound or naloxone (1×10^−6 M) plus 0.1 nM of the delta-opioid receptor agonist [^3H] DPDPE (specific activity 50.6 Ci/mmol), 0.1 nM of the mu-opioid receptor agonist [^3H]DAMGO (specific activity 50.0 Ci/mmol) or 0.1 nM of the kappa-opioid receptor agonist [^3H]U69593 (specific activity 41.4 Ci/mmol) in 2 ml of 10 mM Tris-HCl buffer containing 5 mM MgCl2 and protease inhibitors. Incubation was carried out for 90 min at 25° C. in order to permit the complete equilibration of the radioligand with its receptor. The reaction was terminated by rapid filtration through Whatman GF/C glass fiber filters using a cell harvester (model M-48R, Brandel Instruments, Gaithersberg, Md.) followed by two 5 ml rinses with ice-cold 50 mM Tris buffer. Non-specific binding was defined as that radioligand bound in the presence of 1×10^−6 M naloxone.

mu-opioid receptor [1] = target: T2, mu-opioid receptor (Rattus norvegicus, UniProt P33535); test: Radioligand binding, mu receptor ([3H]DAMGO)
T2 construct: delta and mu receptors from rat whole brain homogenate; from tissue; host or cells: rat whole brain homogenate (membrane fractions)
Procedure: as §1, §2

kappa-opioid receptor [2] = target: T3, kappa-opioid receptor (Cavia porcellus, UniProt P41144); test: Radioligand binding, kappa receptor ([3H]U69593); design: species or system guinea pig
T3 construct: kappa receptors from guinea pig cerebellar homogenate; from tissue; host or cells: guinea pig cerebellar homogenate (membrane fractions)
Procedure: as §1, §2

delta receptor = target: T4, delta receptor (Mus musculus, UniProt P32300); test: Intrinsic activity, electrically-induced contractions of mouse isolated vas deferens (MVD); assay type: cell-based
T4 construct: vasa deferentia were isolated from male CD-1 mice; tissue Charles River; host or cells: isolated vas deferens of male CD-1 mice
Procedure: as §1
Tension development in isolated mouse vas deferens was measured as described previously (Chang et al., 1993). Following cervical dislocation, vasa deferentia were isolated from male CD-1 mice (Charles River, Raleigh, N.C.) weighing 20-25 g. Muscles were suspended in individual organ baths containing Mg-free Krebs-Henseleit solution (37° C., aerated with O2—CO2, 95:5) of the following composition (mM): NaCl, 117.5; KCl, 4.75; CaCl2, 2.6; KH2PO4, 1.2; NaHCO3, 24.5; and glucose, 11. The vas deferens segments were positioned between platinum electrodes (Radnoti Glassware Technology Inc., Monrovia, Calif.) and connected to a Grass (Grass-Telefactor, West Warwick, R.I.) FTO3 isometric force transducer under a resting tension of 0.5 g. Muscles were stimulated to contract by administering 400 msec pulse trains (1 msec duration, supramaximal voltage, 10 Hz) with a Grass S88 stimulator. An IC50 value for test compound inhibition of electrically-induced contractions was produced through the addition of cumulative concentrations of test compound to the bathing solution (Chang et al., 1993).
The ED50 values for formula (ii) were extrapolated from curves showing the dose concentration plotted against the response and are presented in FIG. 2.

reserpine treated rats = test: Locomotor activity in reserpine treated rats; assay type: in vivo, rat; settings: compound 18 hours after reserpine, 3, 10 or 30 mg/kg, total counts over 1 h
Procedure: (§3) Behavioral parameters were monitored in transparent shoebox cages that measured 45×25×20 cm, with a 1-cm depth of wood chips on the cage floor and a plastic grid on top of the cage. Rectangular photocell monitors with a bank of 3 photocell beams surrounded each test cage. Ambulations (locomotor activity: total number of beam breaks in 1 hour) were recorded by computer and stored for each test session.
(§4) Animals were administered injections of dextrose, reserpine or haloperidol. Formula (i) or Formula (ii) was then administered 18 hours after reserpine at doses of 3, 10 or 30 mg/kg or 15 minutes after haloperidol at doses of 1, 3, 10 or 30 mg/kg. Animals were monitored over a 60-min period in all instances, and data are expressed as total counts over the entire 1 h test period. […] In these studies, clinically effective therapies such as dopamine replacement therapy restore locomotor activity in dopamine-depleted or dopamine antagonist treated animals. Dopamine replacement therapy also, however, produces an overshoot in locomotor activity beyond the locomotor counts observed with normal control animals (with intact dopamine systems). This is considered the activating component of dopamine replacement therapy that results in dyskinesias in Parkinson's patients.

haloperidol-treated rats = test: Locomotor activity in haloperidol treated rats; assay type: in vivo, rat; settings: for Efficacy on locomotor activity (FIG. 1): compound 15 minutes after haloperidol, 1, 3, 10 or 30 mg/kg, total counts over 1 h
Procedure: as §3, §4

mice [3] = test: Seizure-like convulsion incidence in mice; assay type: in vivo, mouse
Source text: One of the most obvious side-effects of potent delta agonists that rapidly penetrate the blood brain barrier is convulsive episodes reminiscent of possible seizure-like brain activity. The mouse is the chosen species for study of these effects since the mouse is the most highly convulsion-sensitive rodent species and mice present with a clear and obvious, whole body tonic-clonic convulsion. One of the earliest phases of delta agonist safety assessments is thus the determination of the convulsion threshold in mice.

rats [4] = test: Seizure-like convulsant activity in rats; assay type: in vivo, rat; settings: oral doses up to 40 mg/kg, results not shown
[5] = system: Parkinson's disease rodent models; test: Parkinson's disease rodent models (summary statements); assay type: in vivo, rat; settings: for Overshoot of locomotor activation beyond normal control animals: haloperidol- or reserpine-treated rats
Procedure: as §3, §4
An opioid receptor agonist selective for the delta receptor. • 2. Active in Parkinson's disease rodent models. • a. Potent at improving locomotor activity of haloperidol-treated rats. • b. Potent at improving locomotor activity in reserpine treated rats. • 3. Orally active in Parkinson's disease rodent models. • a.

mu-opioid receptor [6] = target: T2, mu-opioid receptor; settings: known results of SNC80; read-out: Receptor Binding Affinity, Ki Mu; cited from earlier work
kappa-opioid receptor [7] = target: T3, kappa-opioid receptor; settings: known results of SNC80; read-out: Receptor Binding Affinity, Ki Kappa; cited from earlier work
mice [8] = settings: cited from earlier work
rats [9] = settings: cited from earlier work
[10] = system: rats treated with reserpine or dopamine receptor antagonists (haloperidol or SCH23390); settings: 10 mg/kg i.p.; cited from earlier work
MPTP-treated marmosets = settings: cited from earlier work
[11] = system: MPTP-lesioned primate (marmosets) model of Parkinson's disease; settings: 10 mg/kg i.p., without attenuation of the anti-parkinsonian actions of L-DOPA; cited from earlier work

T2 sequence (P33535 whole entry): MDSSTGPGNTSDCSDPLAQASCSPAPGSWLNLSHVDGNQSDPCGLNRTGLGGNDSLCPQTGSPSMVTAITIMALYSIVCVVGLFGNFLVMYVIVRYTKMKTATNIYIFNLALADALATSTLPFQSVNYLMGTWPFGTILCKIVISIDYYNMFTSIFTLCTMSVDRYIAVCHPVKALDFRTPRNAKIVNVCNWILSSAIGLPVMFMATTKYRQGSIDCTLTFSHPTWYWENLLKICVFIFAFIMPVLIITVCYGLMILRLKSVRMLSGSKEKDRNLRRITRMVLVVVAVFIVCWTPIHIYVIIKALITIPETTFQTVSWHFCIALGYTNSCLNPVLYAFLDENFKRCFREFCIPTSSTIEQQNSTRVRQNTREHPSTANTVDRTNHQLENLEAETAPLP
T4 sequence (P32300 whole entry): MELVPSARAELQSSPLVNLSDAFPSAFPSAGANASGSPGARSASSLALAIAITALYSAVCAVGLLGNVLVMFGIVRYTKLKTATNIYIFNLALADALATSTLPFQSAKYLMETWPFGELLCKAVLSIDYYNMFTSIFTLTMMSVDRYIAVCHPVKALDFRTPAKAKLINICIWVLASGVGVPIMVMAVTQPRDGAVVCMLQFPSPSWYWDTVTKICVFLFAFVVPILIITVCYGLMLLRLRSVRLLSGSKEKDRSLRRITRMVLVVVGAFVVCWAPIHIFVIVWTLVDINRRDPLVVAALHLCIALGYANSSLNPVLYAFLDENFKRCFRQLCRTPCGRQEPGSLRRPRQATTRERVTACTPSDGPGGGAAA
T1 sequence (P33533 whole entry): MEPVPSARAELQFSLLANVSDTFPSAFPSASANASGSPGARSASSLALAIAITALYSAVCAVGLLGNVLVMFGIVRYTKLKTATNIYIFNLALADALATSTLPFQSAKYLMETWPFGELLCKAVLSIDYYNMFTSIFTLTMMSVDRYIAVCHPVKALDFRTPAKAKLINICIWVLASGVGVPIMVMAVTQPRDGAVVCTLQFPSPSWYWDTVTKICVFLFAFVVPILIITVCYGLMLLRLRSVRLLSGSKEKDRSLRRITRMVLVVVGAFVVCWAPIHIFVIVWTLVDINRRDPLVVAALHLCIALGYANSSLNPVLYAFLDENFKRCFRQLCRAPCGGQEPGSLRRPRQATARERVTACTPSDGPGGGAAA
T3 sequence (P41144 whole entry): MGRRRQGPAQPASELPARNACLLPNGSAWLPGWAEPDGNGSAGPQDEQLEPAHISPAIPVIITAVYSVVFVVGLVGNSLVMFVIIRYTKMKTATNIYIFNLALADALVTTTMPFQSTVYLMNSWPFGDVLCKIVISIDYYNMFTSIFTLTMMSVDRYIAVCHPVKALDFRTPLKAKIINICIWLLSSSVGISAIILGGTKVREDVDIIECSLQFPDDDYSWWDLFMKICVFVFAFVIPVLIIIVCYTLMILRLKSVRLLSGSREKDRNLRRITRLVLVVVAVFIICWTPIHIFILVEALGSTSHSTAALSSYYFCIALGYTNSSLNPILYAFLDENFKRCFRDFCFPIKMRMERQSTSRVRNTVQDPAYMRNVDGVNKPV

Row | Compound | Ki (delta-opioid receptor) | Ki (mu-opioid receptor [1]) | Ki (kappa-opioid receptor [2]) | EC50 (delta receptor) | Efficacy on locomotor activity (FIG. 1) (reserpine treated rats) | Efficacy on locomotor activity (FIG. 1) (haloperidol-treated rats; haloperidol treated rats) | Seizure-like convulsion incidence in mice (% of animals treated) (mice [3]; Intravenous 1 mg/kg) | Seizure-like convulsion incidence in mice (% of animals treated) (mice [3]; Intravenous 3 mg/kg) | Oral activity in Parkinson's disease rodent models [5] | Seizure-like convulsion incidence in mice (% of animals treated) (mice [3]; Oral 60 mg/kg) | also measured
1 | CCN(CC)C(=O)c1ccc([C@H](c2cccc(O)c2)N2C[C@@H](C)N(Cc3cccc(F)c3)C[C@@H]2C)cc1 [Formula (i), 4-((alpha-R)-alpha-((2S,5R)-2,5-Dimethyl-4-(3-fluorobenzyl)-1-piperazinyl)-3-hydroxybenzyl)-N,N-diethylbenzamide] | 0.73 nM | 11.6 nM | 567 nM | 2.6 nM | clear efficacy | clear efficacy | 50% | 40% | Orally active | – | Binding affinity for the delta receptor compared to SNC80 (delta-opioid receptor): increased binding affinity; Binding affinity for the mu receptor compared to SNC80 (mu-opioid receptor [1]): increased binding affinity; Seizure-like convulsion incidence in mice (% of animals treated) (mice [3]; Intravenous 0.3 mg/kg): 0%; Seizure-like convulsion incidence in mice (% of animals treated) (mice [3]; Oral 15 mg/kg): 23%; Seizure activity in mice relative to SNC80 (mice [3]): reduced relative to SNC80; Oral seizure-like convulsant activity in rats (rats [4]): no oral-seizure-like convulsant activity; Overshoot of locomotor activation beyond normal control animals [5]: No evidence for overshoot of locomotor activation
2 | CCN(CC)C(=O)c1ccc([C@H](c2cccc(O)c2)N2C[C@@H](C)N(Cc3ccccc3F)C[C@@H]2C)cc1 [Formula (ii), 4-((Alpha-R)-Alpha-((2S,5R)-2,5-Dimethyl-4-(2-fluorobenzyl)-1-piperazinyl)-3-hydroxybenzyl)-N,N-diethylbenzamide] | – | 7.8 nM | 171 nM | 3 nM | clear efficacy | clear efficacy | 0% | 30% | Orally active | 30% | Binding affinity for the delta receptor compared to SNC80 (delta-opioid receptor): increased binding affinity; Ki (delta-opioid receptor; rat whole brain homogenate, 0.1 nM [3H]DPDPE, read-out: Receptor Binding Affinity, Ki Delta): 0.77 nM; Binding affinity for the mu receptor compared to SNC80 (mu-opioid receptor [1]): increased binding affinity; Beneficial effects in presence of delta receptor antagonist naltrindole (FIG. 4) (haloperidol-treated rats; haloperidol treated rats, with naltrindole (NTI)): completely blocked; Anti-parkinsonian syndrome effects (FIG. 3B) (haloperidol-treated rats; haloperidol-treated rats, i.p. (intraperitoneal)): shows potency; Anti-parkinsonian syndrome effects (FIG. 3A) (haloperidol-treated rats; haloperidol-treated rats, p.o. (oral, by gavage)): shows potency; Seizure-like convulsion incidence in mice (% of animals treated) (mice [3]; Oral 15 mg/kg): 20%; Seizure-like convulsion incidence in mice (% of animals treated) (mice [3]; Oral 30 mg/kg): 20%; Seizure activity in mice relative to SNC80 (mice [3]): reduced relative to SNC80; Overshoot of locomotor activation beyond normal control animals [5]: No evidence for overshoot of locomotor activation
3 | CCN(CC)C(=O)c1ccc([C@H](c2cccc(OC)c2)N2C[C@@H](C)N(Cc3cccc(F)c3)C[C@@H]2C)cc1 [Formula (iii), 4-((alpha-R)-alpha-((2S,5R)-2,5-Dimethyl-4-(3-fluorobenzyl)-1-piperazinyl)-3-methoxybenzyl)-N,N-diethylbenzamide] | 5.6 nM | 5000 nM | 100 nM | 29 nM | – | – | – | 20% | – | 0% | –
4 | CCN(CC)C(=O)c1ccc([C@H](c2cccc(OC)c2)N2C[C@@H](C)N(Cc3ccccc3F)C[C@@H]2C)cc1 [Formula (iv), 4-((alpha-R)-alpha-((2S,5R)-2,5-Dimethyl-4-(2-fluorobenzyl)-1-piperazinyl)-3-methoxybenzyl)-N,N-diethylbenzamide] | 4.2 nM | 5000 nM | 100 nM | 4.1 nM | – | – | 0% | 20% | – | 10% | Seizure-like convulsion incidence in mice (% of animals treated) (mice [3]; Oral 30 mg/kg): 0%
5 | C=CCN1C[C@H](C)N([C@H](c2ccc(C(=O)N(CC)CC)cc2)c2cccc(OC)c2)C[C@H]1C [SNC80] | – | – | – | – | clear efficacy | clear efficacy | 30% | 100% | lack of oral activity | – | Seizure-like convulsion incidence in mice (% of animals treated) (mice [3]; Intravenous 0.3 mg/kg): 0%; Ki (mu-opioid receptor [6]): 4800 nM; Ki (kappa-opioid receptor [7]): 4100 nM; Seizure-like convulsions (Broom, et al., 2002) (mice [8]): produce seizure-like convulsions; Seizure-like convulsions (Broom, et al., 2002) (rats [9]): produce seizure-like convulsions; Behavioral deficits (ambulatory behavior, grooming, rearing, social interaction and exploration, static investigation) [10]: restored behavioral deficits; Parkinsonian posture induced by MPTP treatment (MPTP-treated marmosets): not statistically reversed; Motor activity, bradykinesia and disability scores (MPTP-treated marmosets; similar dose levels (10 mg/kg)): restored motor activity, bradykinesia and disability scores to normal
6 | COc1cccc2c1[C@]13CCN(CC4CC4)[C@H](C2)[C@]1(OC)CCC(=O)C3 [cyprodime] | – | – | – | – | – | – | – | – | – | – | L-DOPA-induced dyskinesia [11]: reduce completely
7 | Oc1ccc2c3c1O[C@H]1c4[nH]c5ccccc5c4C[C@@]4(O)[C@@H](C2)N(CC2CC2)CC[C@]314 [naltrindole, reference compound] | – | – | – | – | – | – | – | – | – | – | Effect alone in haloperidol treated rats (FIG. 4) (haloperidol-treated rats; naltrindole alone): no effect
